The target in assay [1] is T1, RARβ (Homo sapiens, UniProt P10826).
T1 sequence (P10826 183-417 limits assumed): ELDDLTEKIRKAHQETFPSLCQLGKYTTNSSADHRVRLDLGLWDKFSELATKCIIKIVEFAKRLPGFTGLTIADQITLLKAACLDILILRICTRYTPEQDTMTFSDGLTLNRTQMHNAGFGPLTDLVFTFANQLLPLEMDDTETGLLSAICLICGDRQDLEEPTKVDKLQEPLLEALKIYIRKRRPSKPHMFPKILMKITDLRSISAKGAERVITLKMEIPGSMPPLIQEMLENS
Kind of assay: chimeric receptor transactivation assay, RARβ. The format is cell-based. Conditions: for EC50: NA = not active at all as an agonist, read-out: RAR Trans. EC50 β; for RAR β efficacy in percentage as compared to the standard compound: number in brackets. From the text: The specification of U.S. Pat. No. 5,455,265 is hereby expressly incorporated by reference.
Table 1 discloses the activity of certain exemplary compounds of the invention in the above-described receptor transactivation and binding assays. Particularly, the transactivation data pertaining to activation of the RAR receptors were obtained in the chimeric assay, and the transactivation data pertaining to the activation of RXR receptors were obtained in the holoreceptor assay.
Efficacy in a transactivation assay is expressed as a percentage of the maximum potency attained by the compound compared to a standard which, in this case, is the compound named (2E,4E,1′S,2′S)-3-methyl-5-[2′-methyl-2′-(5,5,8,8-tetramethyl-5,6,7,8-tetrahydro-naphthalen-2-yl)-cyclopropyl]-penta-2,4-dienoic acid.
(§1) In Table 1 NA stands for not active at all as an agonist. ND stands for not determined. The first row of numbers pertaining to each compound is the measured EC50 number. […] The third row of numbers pertaining to each compound is the binding Ki number.

For assay [2], the target named is T2, RARα (Homo sapiens, UniProt P10276).
T2 sequence (P10276 1-462): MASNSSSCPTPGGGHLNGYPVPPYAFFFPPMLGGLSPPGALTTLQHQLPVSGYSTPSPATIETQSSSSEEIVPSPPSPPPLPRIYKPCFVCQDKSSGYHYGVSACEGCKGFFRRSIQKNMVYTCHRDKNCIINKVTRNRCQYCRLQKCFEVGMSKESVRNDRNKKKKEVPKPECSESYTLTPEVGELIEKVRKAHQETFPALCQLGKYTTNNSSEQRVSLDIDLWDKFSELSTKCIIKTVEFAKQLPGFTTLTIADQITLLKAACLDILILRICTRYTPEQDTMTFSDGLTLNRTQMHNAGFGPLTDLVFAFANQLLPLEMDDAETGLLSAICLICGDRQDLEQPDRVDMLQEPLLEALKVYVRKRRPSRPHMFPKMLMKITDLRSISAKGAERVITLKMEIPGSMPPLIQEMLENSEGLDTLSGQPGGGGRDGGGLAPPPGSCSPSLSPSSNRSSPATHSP
As to the kind of experiment: ligand binding assay, RARα. Conditions: read-out: RAR Bind. Ki α.
Text: (§2) A holoreceptor transactivation assay and a ligand binding assay which measure the antagonist/agonist like activity of the compounds of the invention, or their ability to bind to the several retinoid receptor subtypes, respectively, are described in published PCT Application No. WO WO93/11755 (particularly on pages 30–33 and 37–41) published on Jun. 24, 1993, the specification of which is also incorporated herein by reference. […] The results obtained in this assay are expressed in EC50 numbers, as they are also in the chimeric receptor transactivation assay. The results of the ligand binding assay are expressed in Ki numbers. (See Cheng et al. Biochemical Pharmacology Vol. 22 pp 3099–3108, expressly incorporated herein by reference.)
as §1

Assay [3] concerns the target T3, RARβ (Homo sapiens, UniProt P10826).
T3 sequence (P10826 1-455): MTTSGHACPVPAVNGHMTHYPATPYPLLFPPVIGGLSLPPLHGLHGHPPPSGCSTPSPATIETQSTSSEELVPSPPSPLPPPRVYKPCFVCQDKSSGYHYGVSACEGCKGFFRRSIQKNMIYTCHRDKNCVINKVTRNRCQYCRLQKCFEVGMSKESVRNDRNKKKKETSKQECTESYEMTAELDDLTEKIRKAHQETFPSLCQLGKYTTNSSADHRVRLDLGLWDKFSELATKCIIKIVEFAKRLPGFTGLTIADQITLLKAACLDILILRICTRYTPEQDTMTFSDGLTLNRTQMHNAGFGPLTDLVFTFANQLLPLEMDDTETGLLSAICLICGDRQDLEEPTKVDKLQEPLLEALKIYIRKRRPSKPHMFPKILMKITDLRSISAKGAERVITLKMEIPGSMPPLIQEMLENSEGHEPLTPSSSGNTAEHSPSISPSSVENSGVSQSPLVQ
As to the kind of experiment: ligand binding assay, RARβ. Conditions: read-out: RAR Bind. Ki β.
Text: as §2, §1

For assay [4], the target named is T4, RXRα (Homo sapiens, UniProt P19793).
T4 construct: expressed in transfected cells
T4 sequence (P19793 1-462): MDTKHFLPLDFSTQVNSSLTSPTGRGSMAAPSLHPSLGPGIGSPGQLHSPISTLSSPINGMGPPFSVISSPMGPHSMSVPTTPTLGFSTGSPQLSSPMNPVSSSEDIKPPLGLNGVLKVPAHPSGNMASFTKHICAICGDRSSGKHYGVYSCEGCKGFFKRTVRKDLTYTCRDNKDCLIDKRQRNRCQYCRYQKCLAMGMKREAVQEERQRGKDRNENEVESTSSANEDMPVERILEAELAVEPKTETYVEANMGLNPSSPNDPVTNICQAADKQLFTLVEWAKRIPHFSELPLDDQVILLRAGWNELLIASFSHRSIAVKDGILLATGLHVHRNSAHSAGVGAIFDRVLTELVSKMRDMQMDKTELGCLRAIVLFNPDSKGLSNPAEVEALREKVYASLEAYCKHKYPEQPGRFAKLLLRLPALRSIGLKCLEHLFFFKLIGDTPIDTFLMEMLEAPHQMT
Kind of assay: ligand binding assay, RXRα. The note with it: read-out: RXR Bind Ki α.
Text: as §2, §1

As to `CCCOc1cc2c(cc1\C(C)=C(F)/C=C/C(C)=C/C(=O)O)C(C)(C)CCC2(C)C` [Compound 4], the EC50 in assay [1] was determined as 185 nM. Besides, in assay [1], the “RAR β efficacy in percentage as compared to the standard compound” value was 16%. In addition, the Ki in assay [2] was determined as 590 nM; in assay [3], 490 nM; in assay [4], 6 nM.
`CCOc1cc2c(cc1\C(CC)=C(F)/C=C/C(C)=C/C(=O)O)C(C)(C)CCC2(C)C` [Compound 2, (2E,4E,6E)-7-(3-Ethoxy-5,5,8,8-tetramethyl-5,6,7,8-tetrahydronaphthalen-2-yl)-6-fluoro-3-methylnona-2,4,6-trienoic acid]: the EC50 in assay [1] was 250 nM. The “RAR β efficacy in percentage as compared to the standard compound” value in assay [1] is given as 11%. Besides, the results for the inhibition constant (Ki) in assay [2], in assay [3] and in assay [4] were 152 nM, 540 nM and 22 nM, respectively.

The values are drawn from patent publication US7019034B2, “Compositions and methods for reducing serum glucose and triglyceride levels in diabetic mammals” (Allergan, Inc., priority 2003, dated 2006).
